pIC50: −log10 of the molar value. In brackets after ≈: the same amount, converted by molar mass. Blank lines part the entries; values can stand above or below the compound they belong to.
How the values were obtained:
[1] = Solubility in DMSO; assay type: physicochemical
[2] = system: blood platelet aggregation induced by U.46619; experiment: In vitro rabbit platelet aggregation induced by U.46619; assay type: cell-based, New Zealand rabbits; conditions: Oryctolagus cuniculus; rabbit platelet-rich plasma; U.46619 1.05 to 2.44 micromoles; pre-incubated 1 min at 37° C., pH 7.4
Method: (§1) Blood is taken from white male New Zealand rabbits which have not received any treatment capable of disrupting the platelet functions.
(§2) After having allowed the first drops to flow freely, the blood is collected in plastic tubes containing 3.8% (wt/v) trisodium citrate 5.5 H2 O, the citrate/blood ratio being 1 volume of citrate per 9 volumes of blood.
(§3) The blood platelet aggregation study is carried out starting from plasmas rich in platelets obtained by centrifuging the above blood samples at low speed. It is measured with the aid of a Mustard aggregometer at a wavelength of 609 nm with a stirring speed of 1,100 revolutions/min.
(§4) The products to be studied are dissolved in polyethylene glycol 300 and pre-incubated for 1 min at 37° C. under a volume of 10 microliters,in a mixture of 300 microliters of plasma rich in platelets and 90 microliters of Tyrode's solution without calcium, pH=7.4. (Corresponding controls are produced by pre-incubating the vehicle on its own instead of solutions of products to be studied).
(§5) The blood platelet aggregation is initiated by the addition either of U.46619 (final concentrations: 1.05 to 2.44 micromoles) or of arachidonic acid (final concentrations: 50 to 100 micromoles).
(§6) Starting from the parameter of the maximum percentage aggregation, the anti-aggregant activity of a product is calculated using the formula: [formula]
One curve: anti-aggregant activity=f (final concentration) is plotted for each product and the 50% inhibitory concentration determined from the graph.
In the case of aggregation with U.46619, the IC50 are given in Table I for compounds 1, 2, 3, 7 and 11 by way of non-limiting example: […]

[3] = Solubility in water; assay type: physicochemical; conditions: for solubility: read-out: soluble in water to give a solution of
[4] = system: conventional mice; experiment: Toxicology, intraperitoneal, mice; assay type: in vivo; conditions: 500 mg per kilo intraperitoneally
Method: The chemical compounds described above were subjected to toxicity checks. This study was carried out on conventional mice weighing from 20 to 22 g. The compounds of general formula I were administered intraperitoneally.

[5] = system: blood platelet aggregation induced by arachidonic acid; experiment: In vitro rabbit platelet aggregation induced by arachidonic acid; assay type: cell-based, New Zealand rabbits; conditions: arachidonic acid 50 to 100 micromoles; for inhibition at 100 µM / inhibition at 10 µM: Oryctolagus cuniculus, Platelet; for inhibition at 100 µM: final concentration of compound 10^-4 M; for inhibition at 10 µM: final concentration of compound 10^-5 M
Method: as §1, §2, §3, §4, §5, §6
The percentage inhibition of the aggregation with arachidonic acid is given in Table II for compounds 2 and 3 by way of non-limiting examples: […]

[6] = system: platelet aggregation induced by U.46619; experiment: Ex vivo inhibition of U.46619-induced platelet aggregation after oral administration in rabbits; set-up: species or system New Zealand rabbits; conditions: t=+90 min relative to control curve at t=0
Method: b) Ex vivo action: inhibition of anti-aggregant effects using U.46619 in rabbits.
Because of their powerful activity in vitro, the anti-aggregant effects ex vivo were studied in rabbits. The substances of general formula I, which are the subject of the present invention, are administered orally as a 1% suspension in carboxymethylcellulose to natural male New Zealand rabbits weighing 2.5 to 3 kg after going without nourishment for about 18 h. Blood samples were taken by cardiac puncture at time 0 and after 90 min. The aggregant U.46619 was used under the same conditions as above and the measurement of the aggregation was carried out using the same technique.
The results are expressed in Table III in terms of percentage inhibition of the maximum amplitude of the aggregation curve at t=+90 min relative to the control curve at t=0 and are given for compounds 2 and 3 by way of non-limiting example: […]

SMILES: CC(NS(=O)(=O)c1ccc(Cl)cc1)C(O)c1ccc2c(c1)CC(C(=O)O)O2 (stereo not drawn) [Compound 6, 5-(2-Parachlorobenzenesulphonamido-1-hydroxypropyl)-2,3-dihydro-2-benzofurancarboxylic acid]
soluble in DMSO to give a solution of [1]: 5%

SMILES: O=C(O)c1cc2cc(CCNS(=O)(=O)c3ccc(Cl)cc3)ccc2o1 [Compound 11, 5-(2-Parachlorobenzenesulphonamidoethyl)-2-benzofurancarboxylic acid]
pIC50 [2]: 5.70
soluble in DMSO to give a solution of [1]: 5%

SMILES: O=C(O)C1CCc2cc(CCNS(=O)(=O)c3ccc(Cl)cc3)ccc2O1 (stereo not drawn) [Compound 26, (dl)-Lysine 6-(2-parachlorobenzenesulphonamidoethyl)-2-chromancarboxylate]
solubility [3]: 10000 µg/mL (≈ 25.3 mM)

SMILES: O=C(CNS(=O)(=O)c1ccccc1)c1ccc2c(c1)CC(C(=O)O)O2 (stereo not drawn) [Compound 22, 5-(benzenesulphonamidoacetyl)-2,3-dihydro-2-benzofurancarboxylic acid]
solubility in water [3]: insoluble in water
soluble in DMSO to give a solution of [1]: 25%

SMILES: O=C(CNS(=O)(=O)c1ccc(Cl)cc1)c1ccc2c(c1)CC(C(=O)O)O2 (stereo not drawn) [Compound 25, (dl)-Lysine 5-parachlorobenzenesulphonamidoacetyl-2,3-dihydro-2-benzofurancarboxylate trihydrate]
solubility [3]: 10000 µg/mL

SMILES: O=C(O)C1Cc2cc(CCNS(=O)(=O)c3ccc(Cl)cc3)ccc2O1 (stereo not drawn) [Compound 2, 5-(2-parachlorobenzenesulphonamidoethyl)-2,3-dihydro-2-benzofurancarboxylic acid]
fatality [4]: not a single fatality
toxicity [4]: atoxic
pIC50 [2]: 6.30
inhibition at 100 µM [5]: -100%
inhibition at 10 µM [5]: -79%
% inhibition of platelet aggregation ([5]; final concentration of compound 5.10^-6 M): -31%
soluble in DMSO to give a solution of [1]: 10%
% inhibition of aggregation ([6]; 5 mg/kg orally): -64%
% inhibition of aggregation ([6]; 10 mg/kg orally): -98%

SMILES: Cc1ccc(S(=O)(=O)N(C)CC(=O)c2ccc3c(c2)CC(C(=O)O)O3)cc1 (stereo not drawn) [Compound 16, 5-(N-methylparatoluenesulphonamidoacetyl)-2,3-dihydro-2-benzofurancarboxylic acid]
soluble in DMSO to give a solution of [1]: 10%

SMILES: O=C(CNS(=O)(=O)c1ccc(Cl)cc1)c1ccc2c(c1)CC(C(=O)O)O2 (stereo not drawn) [Compound 1, 5-(parachlorobenzenesulphonamidoacetyl)-2,3-dihydro-2-benzofurancarboxylicacid]
fatality [4]: not a single fatality
toxicity [4]: atoxic
pIC50 [2]: 6.22
soluble in DMSO to give a solution of [1]: 10%

SMILES: O=C(O)C1Cc2cc(CCNS(=O)(=O)c3ccc(Cl)cc3)ccc2S1 (stereo not drawn) [Compound 10, 5-(2-Parachlorobenzenesulphonamidoethyl)-2,3-dihydro-2-benzothiophenecarboxylic acid]
soluble in DMSO to give a solution of [1]: 20%

SMILES: O=C(O)C1Cc2cc(CCNS(=O)(=O)c3ccc(Cl)cc3)ccc2O1 (stereo not drawn) [Compound 4, 5-(2-parachlorobenzenesulphonamidoethyl)-2,3-dihydro-2-benzofurancarboxylic acid monohydrate]
soluble in DMSO to give a solution of [1]: 10%

SMILES: O=C(O)C1CCc2cc(CCNS(=O)(=O)c3ccc(Cl)cc3)ccc2O1 (stereo not drawn) [Compound 7, 6-(2-Parachlorobenzenesulphonamidoethyl)-2-chromancarboxylic acid]
pIC50 [2]: 6.30
soluble in DMSO to give a solution of [1]: 20%

SMILES: O=C(CNS(=O)(=O)c1c(F)c(F)c(F)c(F)c1F)c1ccc2c(c1)CC(C(=O)O)O2 (stereo not drawn) [Compound 24, 5-Pentafluorobenzenesulphonamidoacetyl-2,3-dihydro-2-benzofurancarboxylic acid]
solubility in water [3]: insoluble in water
soluble in DMSO to give a solution of [1]: 20%

SMILES: O=C(O)C1Cc2cc(CCNS(=O)(=O)c3ccc(Cl)cc3)ccc2O1 (stereo not drawn) [Compound 17, Sodium 5-(2-parachlorobenzenesulphonamidoethyl)-2,3-dihydro-2-benzofurancarboxylate]
solubility [3]: 15000 µg/mL

SMILES: O=C(O)C1Cc2cc(C(O)CNS(=O)(=O)c3ccc(Cl)cc3)ccc2O1 (stereo not drawn) [Compound 3, 5-(2-parachlorobenzenesulphonamido-1-hydroxyethyl)-2,3-dihydro-2-benzofurancarboxylic acid]
fatality [4]: not a single fatality
toxicity [4]: atoxic
pIC50 [2]: 5.30
inhibition at 100 µM [5]: -86%
inhibition at 10 µM [5]: -7%
% inhibition of platelet aggregation ([5]; final concentration of compound 5.10^-5 M): -78%
soluble in DMSO to give a solution of [1]: 10%
% inhibition of aggregation ([6]; 5 mg/kg orally): -43%
% inhibition of aggregation ([6]; 10 mg/kg orally): -74%

SMILES: O=C(O)C1Oc2ccc(CCNS(=O)(=O)c3ccc(Cl)cc3)cc2O1 (stereo not drawn) [Compound 8, 5-(2-Parachlorobenzenesulphonamidoethyl)-1,3-benzodioxole-2-carboxylic acid]
soluble in DMSO to give a solution of [1]: 20%

Next, values leading:

solubility [3]: 10000 µg/mL (≈ 24.4 mM)
SMILES: O=C(CNS(=O)(=O)c1ccc(Cl)cc1)c1ccc2c(c1)CCC(C(=O)O)O2 (racemic) [Compound 27, dl-Lysine 6-(parachlorobenzenesulphonamidoacetyl)-2-chromancarboxylate]

solubility in water [3]: insoluble in water
soluble in DMSO to give a solution of [1]: 25%
SMILES: O=C(CNS(=O)(=O)c1ccc(Cl)cc1)c1ccc2c(c1)CCC(C(=O)O)O2 (stereo not drawn) [Compound 21, 6-(parachlorobenzenesulphonamidoacetyl)-2-chromancarboxylic acid]

solubility in water [3]: insoluble in water
soluble in DMSO to give a solution of [1]: 25%
SMILES: CCOC(=O)C1CCc2cc(C(=O)CNS(=O)(=O)c3ccc(Cl)cc3)ccc2O1 (stereo not drawn) [Compound 20, ethyl 6-(parachlorobenzenesulphonamidoacetyl)-2-chromancarboxylate]

solubility in water [3]: insoluble in water
soluble in DMSO to give a solution of [1]: 15%
SMILES: O=C(CNS(=O)(=O)c1ccc(Cl)cc1)c1ccc2c(c1)CC(C(=O)O)C2 (stereo not drawn) [Compound 28, 5-(Parachlorobenzenesulphonamidoacetyl)-2-indanecarboxylic acid]

soluble in DMSO to give a solution of [1]: 10%
SMILES: O=C(O)C1Cc2ccc(CCNS(=O)(=O)c3ccc(Cl)cc3)cc2C1 (stereo not drawn) [Compound 9, 5-(2-parachlorobenzenesulphonamidoethyl)-2-indanecarboxylic acid]

soluble in DMSO to give a solution of [1]: 10%
SMILES: CON=C(CNS(=O)(=O)c1ccc(Cl)cc1)c1ccc2c(c1)CC(C(=O)O)O2 (stereo not drawn) [Compound 14, 5-(2-parachlorobenzenesulphonamido-1-methoxyiminoethyl)-2,3-dihydro-2-benzofurancarboxylic acid]

solubility [3]: 5000 µg/mL (≈ 12.7 mM)
SMILES: O=C(CNS(=O)(=O)c1ccc(Cl)cc1)c1ccc2c(c1)CC(C(=O)O)C2 (racemic) [Compound 29, dl-Lysine 5-(parachlorobenzenesulphonamidoacetyl)-2-indanecarboxylate]

soluble in DMSO to give a solution of [1]: 10%
SMILES: O=C(O)C1Cc2cc(C(CNS(=O)(=O)c3ccc(Cl)cc3)=NO)ccc2O1 (stereo not drawn) [Compound 13]

soluble in DMSO to give a solution of [1]: 10%
SMILES: CC(NS(=O)(=O)c1ccc(Cl)cc1)C(=O)c1ccc2c(c1)CC(C(=O)O)O2 (stereo not drawn) [Compound 5, 5-(α-methylparachlorobenzenesulphonamidoacetyl)-2,3-dihydro-2-benzofurancarboxylic acid]

soluble in DMSO to give a solution of [1]: 30%
SMILES: COc1ccc(S(=O)(=O)NCC(=O)c2ccc3c(c2)CC(C(=O)O)O3)cc1 (stereo not drawn) [Compound 23, 5-paramethoxybenzenesulphonamidoacetyl-2,3-dihydro-2-benzofurancarboxylic acid]
